ChEMBL document CHEMBL3091315, “PDE2 inhibition: potential for the treatment of cognitive disorders” (Bioorg Med Chem Lett, 2013)
Blank lines part the entries; values can stand above or below the compound they belong to.

Columns and labels:
[1] = molecular target: T1, cGMP-dependent 3',5'-cyclic phosphodiesterase (Homo sapiens, UniProt O00408); format: cell-based, SF-21
Description: Inhibition of recombinant PDE2A (unknown origin) expressed in baculovirus infected insect SF-21 cells using [3H]-cAMP as substrate after 30 mins by liquid scintillation counting analysis

Bos taurus [2] = species on record: Bos taurus; experiment: Inhibition of bovine vascular smooth muscle PDE4 using cAMP/cGMP as substrate at 10 uM relative to control; format: tissue-based; details: Muscle tissue
Bos taurus [3] = species on record: Bos taurus; experiment: Inhibition of bovine vascular smooth muscle PDE3 using cAMP/cGMP as substrate at 10 uM relative to control; format: tissue-based; details: Muscle tissue
[4] = Ratio of unbound drug level in brain to plasma in rat; details: brain and plasma (unbound), read-out: K(p,uu,brain)
Cerebrum [5] = experiment: Biodistribution in cerebrum of rat measured at 2 mins by microPET image analysis; format: ADME, organism-based; details: in vivo
Cerebrum [6] = experiment: Biodistribution in cerebrum of rat measured at 10 mins by microPET image analysis; format: ADME, organism-based; details: in vivo
Cerebellum [7] = experiment: Biodistribution in cerebellum of rat measured at 10 mins by microPET image analysis; format: ADME, organism-based; details: in vivo
Cerebellum [8] = experiment: Biodistribution in cerebellum of rat measured at 2 mins by microPET image analysis; format: ADME, organism-based; details: in vivo
[9] = Half life in iv dosed rat; format: ADME, organism-based; details: in vivo
[10] = Clearance in iv dosed rat; format: ADME, organism-based; details: in vivo
[11] = molecular target: T2, cAMP and cAMP-inhibited cGMP 3',5'-cyclic phosphodiesterase 10A (Homo sapiens, UniProt Q9Y233)
Description: Inhibition of PDE10A (unknown origin) using tritium labeled cAMP as substrate after 1 hr by scintillation proximity assay

[12] = molecular target: T1, cGMP-dependent 3',5'-cyclic phosphodiesterase
Description: Inhibition of PDE2A (unknown origin) using tritium labeled cAMP as substrate after 1 hr by scintillation proximity assay

[13] = Selectivity ratio of IC50 for PDE (unknown origin) to IC50 for porcine/bovine heart myocardium PDE2; format: tissue-based
[14] = Inhibition of pig/bovine heart myocardium PDE2 after 15 mins by scintillation proximity assay in presence of [3H]-cAMP; format: tissue-based
[15] = Selectivity ratio of IC50 for porcine/bovine PDE1C to IC50 for porcine/bovine heart myocardium PDE2; format: tissue-based
[16] = molecular target: T2, cAMP and cAMP-inhibited cGMP 3',5'-cyclic phosphodiesterase 10A; experiment: Inhibition of recombinant PDE10A (unknown origin) expressed in baculovirus infected insect SF-21 cells using [3H]-cAMP as substrate after 30 mins by liquid scintillation counting analysis
Homo sapiens [17] = species on record: Homo sapiens; experiment: Selectivity ratio of IC50 for human PDE10A to IC50 for human PDE2A
[18] = Drug uptake in Wistar rat striatum at 0.03 mg/kg, iv after 5 mins by LC-MS analysis; format: ADME, organism-based; set-up: dose 0.03 mg/kg, route intravenous; details: read-out: Drug uptake
Homo sapiens [19] = species on record: Homo sapiens; experiment: Selectivity ratio of IC50 for PDE3A (unknown origin) to IC50 for full length recombinant human PDE2A; details: tested as the 18F-labelled form
Homo sapiens [20] = species on record: Homo sapiens; experiment: Selectivity ratio of IC50 for PDE4D (unknown origin) to IC50 for full length recombinant human PDE2A; details: tested as the 18F-labelled form
Homo sapiens [21] = species on record: Homo sapiens; experiment: Selectivity ratio of IC50 for PDE11 (unknown origin) to IC50 for full length recombinant human PDE2A; details: tested as the 18F-labelled form
Homo sapiens [22] = species on record: Homo sapiens; experiment: Selectivity ratio of IC50 for PDE7B (unknown origin) to IC50 for full length recombinant human PDE2A; details: tested as the 18F-labelled form
Homo sapiens [23] = species on record: Homo sapiens; experiment: Selectivity ratio of IC50 for PDE6A (unknown origin) to IC50 for full length recombinant human PDE2A; details: tested as the 18F-labelled form
Homo sapiens [24] = species on record: Homo sapiens; experiment: Selectivity ratio of IC50 for PDE8B (unknown origin) to IC50 for full length recombinant human PDE2A; details: tested as the 18F-labelled form
Homo sapiens [25] = species on record: Homo sapiens; experiment: Selectivity ratio of IC50 for PDE1B (unknown origin) to IC50 for full length recombinant human PDE2A; details: tested as the 18F-labelled form
Homo sapiens [26] = species on record: Homo sapiens; experiment: Selectivity ratio of IC50 for PDE9A (unknown origin) to IC50 for full length recombinant human PDE2A; details: tested as the 18F-labelled form
Homo sapiens [27] = species on record: Homo sapiens; experiment: Selectivity ratio of IC50 for PDE5A (unknown origin) to IC50 for full length recombinant human PDE2A; details: tested as the 18F-labelled form

T1 sequence (O00408 whole entry): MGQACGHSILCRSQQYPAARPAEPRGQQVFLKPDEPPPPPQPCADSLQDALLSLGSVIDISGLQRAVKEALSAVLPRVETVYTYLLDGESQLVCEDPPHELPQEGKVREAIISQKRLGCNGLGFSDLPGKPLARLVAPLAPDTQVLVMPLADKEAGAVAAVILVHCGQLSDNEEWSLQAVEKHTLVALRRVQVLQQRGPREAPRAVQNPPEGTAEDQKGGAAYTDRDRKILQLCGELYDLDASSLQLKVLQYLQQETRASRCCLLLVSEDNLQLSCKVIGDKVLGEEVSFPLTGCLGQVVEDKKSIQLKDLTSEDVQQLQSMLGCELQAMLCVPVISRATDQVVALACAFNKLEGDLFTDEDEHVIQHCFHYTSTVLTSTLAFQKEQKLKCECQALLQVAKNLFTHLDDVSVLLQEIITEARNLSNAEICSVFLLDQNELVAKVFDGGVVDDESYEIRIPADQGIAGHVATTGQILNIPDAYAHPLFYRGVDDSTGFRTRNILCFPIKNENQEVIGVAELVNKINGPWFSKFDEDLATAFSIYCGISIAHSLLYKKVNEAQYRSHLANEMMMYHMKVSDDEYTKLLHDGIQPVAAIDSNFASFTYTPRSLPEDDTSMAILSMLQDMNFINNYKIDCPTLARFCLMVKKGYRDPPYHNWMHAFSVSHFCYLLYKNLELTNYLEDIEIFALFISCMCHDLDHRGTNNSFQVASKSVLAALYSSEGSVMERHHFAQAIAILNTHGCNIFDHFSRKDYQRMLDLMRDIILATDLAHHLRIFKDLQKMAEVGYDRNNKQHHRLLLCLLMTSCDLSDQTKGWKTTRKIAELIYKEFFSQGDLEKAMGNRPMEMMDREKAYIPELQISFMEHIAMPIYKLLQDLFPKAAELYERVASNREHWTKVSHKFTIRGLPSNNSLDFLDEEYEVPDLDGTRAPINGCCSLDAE
T2 sequence (Q9Y233 whole entry): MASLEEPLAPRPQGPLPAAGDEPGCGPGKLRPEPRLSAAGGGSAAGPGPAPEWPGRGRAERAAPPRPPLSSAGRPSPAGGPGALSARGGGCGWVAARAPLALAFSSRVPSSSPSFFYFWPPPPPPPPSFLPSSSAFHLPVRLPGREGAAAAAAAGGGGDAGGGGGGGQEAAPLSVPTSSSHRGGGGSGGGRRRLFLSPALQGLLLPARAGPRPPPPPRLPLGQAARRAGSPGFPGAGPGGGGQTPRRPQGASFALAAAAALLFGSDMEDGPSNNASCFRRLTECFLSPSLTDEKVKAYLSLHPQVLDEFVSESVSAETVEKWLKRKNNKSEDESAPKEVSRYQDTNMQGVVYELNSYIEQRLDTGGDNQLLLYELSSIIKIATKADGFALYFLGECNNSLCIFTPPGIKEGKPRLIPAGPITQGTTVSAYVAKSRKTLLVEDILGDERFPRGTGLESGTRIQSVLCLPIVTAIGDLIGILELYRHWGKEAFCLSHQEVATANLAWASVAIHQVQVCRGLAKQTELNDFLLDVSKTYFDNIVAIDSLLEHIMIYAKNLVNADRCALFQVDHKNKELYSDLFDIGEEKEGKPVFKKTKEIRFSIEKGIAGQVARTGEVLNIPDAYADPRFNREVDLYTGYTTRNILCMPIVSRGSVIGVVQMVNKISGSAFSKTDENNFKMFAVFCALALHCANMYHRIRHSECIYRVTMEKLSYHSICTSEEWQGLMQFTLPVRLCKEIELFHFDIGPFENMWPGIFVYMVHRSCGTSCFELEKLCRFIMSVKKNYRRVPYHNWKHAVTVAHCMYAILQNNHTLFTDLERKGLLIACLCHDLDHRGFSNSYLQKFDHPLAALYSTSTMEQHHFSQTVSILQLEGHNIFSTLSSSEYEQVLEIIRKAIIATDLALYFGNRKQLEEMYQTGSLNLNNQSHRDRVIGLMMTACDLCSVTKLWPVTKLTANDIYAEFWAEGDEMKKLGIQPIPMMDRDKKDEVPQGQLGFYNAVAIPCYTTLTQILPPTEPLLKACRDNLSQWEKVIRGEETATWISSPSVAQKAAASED

IC50 [1]: 4 nM
SMILES: COc1ccc2nnc3c(C)nc(-c4ccccc4Cl)n3c2n1

SMILES: COc1cc2c(cc1-c1ccccc1)C(c1cccc(C(N)=O)c1)=NCC(=O)N2C
inhibition (Bos taurus [2]): 14%
inhibition (Bos taurus [3]): 23%

Kp uu [4]: 0.5
SMILES: Cc1nc(-c2cnn(C)c2-c2ccc(C(F)(F)F)cn2)c2c(N3CCC3)ncnn12 [PF-05180999]

Drug uptake (Cerebrum [5]): 96%
Drug uptake (Cerebrum [6]): 92%
Drug uptake (Cerebellum [7]): 82%
Drug uptake (Cerebellum [8]): 96%
SMILES: Cc1nc2ccc(CN3CCOCC3)cc2n2c(-c3c([18F])cccc3Cl)nnc12

half-life [9]: 90 min
clearance [10]: 27 mL/min/kg
SMILES: COc1ncc(-c2cc(C3=Nc4c(C(C)(C)C)nn(CCO)c4C(=O)NC3)ccc2OC)cn1

IC50 [11]: 9 nM
IC50 [12]: 6 nM
SMILES: COc1cccc2nc(C)c3nnc(-c4ccccc4Cl)n3c12

IC50 [14]: 2 nM
SMILES: COc1ccc(Cc2nc(O)c3c(C)nc([C@@H](CCCc4ccccc4)[C@@H](C)O)n3n2)cc1OC
Ratio IC50 [13]: > 100
Ratio IC50 [15]: 50

SMILES: Cc1ccc2nc(C)c3nnc(-c4cc(OCCCC(F)(F)F)ccc4Cl)n3c2c1
IC50 [16]: > 1000 nM

Ratio IC50 (Homo sapiens [17]): > 600
concentration at 5 min [18]: 70 ng/g
SMILES: Cc1nc2ccc(CN3CCOCC3)cc2n2c(-c3ccccc3Cl)nnc12

half-life [9]: 30 min
clearance [10]: 70 mL/min/kg
SMILES: CCC(CC)c1nn(CCO)c2c1N=C(c1ccc(-n3ccnc3C)cc1)CNC2=O

Ratio IC50 (Homo sapiens [19]): > 20000
Ratio IC50 (Homo sapiens [20]): > 20000
Ratio IC50 (Homo sapiens [21]): > 20000
Ratio IC50 (Homo sapiens [22]): > 20000
Ratio IC50 (Homo sapiens [23]): > 20000
Ratio IC50 (Homo sapiens [24]): > 20000
Ratio IC50 (Homo sapiens [25]): > 20000
Ratio IC50 (Homo sapiens [26]): > 20000
Ratio IC50 (Homo sapiens [27]): > 20000
SMILES: Cc1nc(-c2cnn(C)c2-c2ccc(C(F)(F)F)cc2)c2c(N3CC(F)C3)ncnn12
